The cell lines below were run with COc1nc(N)nc2c1ncn2[C@@H]1O[C@H](CO)[C@@H](O)[C@@H]1O [Nelarabine] + O=C(c1cc(Cc2n[nH]c(=O)c3ccccc23)ccc1F)N1CCN(C(=O)C2CC2)CC1 [Olaparib] (partner 8 µM) (assay: relative viability (nuclei count vs DMSO), 5 days (fraction); higher = more cells survive). Conditions: first compound 1 µM.
In short: (§1)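 Lung cancer cell lines were pin-tool dosed in 1536-well plates on the day after seeding, with either a lone drug or a fixed anchor-drug dose plus five library-drug doses (not always all listed) in √10 steps. Nuclei were counted on 4× images after 5 days. Relative viability is the ratio of treated-well to vehicle-well nuclei counts, with each value a median of duplicate plates.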

Row | Cell Line | relative viability
1 | NCI-H1755 | 0.927
2 | NCI-H1792 | 0.436
3 | NCI-H1793 | 1.05
4 | NCI-H1915 | 0.24
5 | NCI-H1944 | 0.419
6 | NCI-H1975 | 0.797
7 | NCI-H1993 | 0.984
8 | NCI-H2009 | 0.855
9 | NCI-H2023 | 0.455
10 | NCI-H2085 | 0.74
11 | NCI-H2087 | 0.72
12 | NCI-H2126 | 0.967
13 | NCI-H2170 | 0.547
14 | NCI-H2228 | 0.447
15 | NCI-H2342 | 0.442
16 | NCI-H2347 | 0.52
17 | NCI-H2405 | 0.896
18 | NCI-H3122 | 0.661

What follows are cell lines tested with COc1nc(N)nc2c1ncn2[C@@H]1O[C@H](CO)[C@@H](O)[C@@H]1O [Nelarabine] + CC(=O)c1c(C)c2cnc(Nc3ccc(N4CCNCC4)cn3)nc2n(C2CCCC2)c1=O [Palbociclib] (partner 0.5 µM) in the same assay as above. Conditions: first compound 0.01 µM.
In short: as §1

Row | Cell Line | relative viability
19 | 201T | 0.391
20 | A-427 | 0.528
21 | ABC-1 | 0.624
22 | BEN | 0.532
23 | CAL-12T | 0.474
24 | COR-L23 | 0.4
25 | COR-L 105 | 0.383
26 | ChaGo-K-1 | 0.939
27 | EKVX | 0.373
28 | EPLC-272H | 0.337
29 | H3255 | 0.327
30 | HARA | 0.202
31 | HCC-15 | 0.847
32 | HCC-44 | 0.985
33 | HCC-78 | 0.433
34 | HCC-366 | 0.632
35 | HCC-827 | 0.537
36 | HOP-62 | 0.567
37 | LC-2-ad | 0.525
38 | LCLC-103H | 0.523

Row | Cell Line | relative viability
39 | LK-2 | 1.04
40 | LOU-NH91 | 0.576
41 | LU99A | 0.48
42 | LXF-289 | 0.708
43 | NCI-H23 | 0.54
44 | NCI-H322M | 0.382
45 | NCI-H358 | 0.121
46 | NCI-H441 | 0.194
47 | NCI-H460 | 0.212
48 | NCI-H520 | 0.215
49 | NCI-H522 | 1.16
50 | NCI-H647 | 0.423
51 | NCI-H650 | 0.338
52 | NCI-H661 | 0.386
53 | NCI-H727 | 0.659
54 | NCI-H838 | 0.267
55 | NCI-H1355 | 0.398
56 | NCI-H1395 | 0.543
57 | NCI-H1437 | 0.342
58 | NCI-H1650 | 0.255

Row | Cell Line | relative viability
59 | NCI-H1651 | 0.566
60 | NCI-H1666 | 0.607
61 | NCI-H1734 | 0.387
62 | NCI-H1755 | 0.462
63 | NCI-H1793 | 0.353
64 | NCI-H1915 | 0.598
65 | NCI-H1944 | 0.367
66 | NCI-H1975 | 0.656
67 | NCI-H1993 | 0.721
68 | NCI-H2009 | 0.194
69 | NCI-H2023 | 0.321
70 | NCI-H2085 | 0.479
71 | NCI-H2087 | 0.251
72 | NCI-H2126 | 0.347
73 | NCI-H2170 | 0.438
74 | NCI-H2228 | 1.04
75 | NCI-H2342 | 0.557
76 | NCI-H2347 | 0.407
77 | NCI-H2405 | 0.495
78 | NCI-H3122 | 0.194

Same assay, conditions: first compound 0.03162 µM

Row | Cell Line | relative viability
79 | 201T | 0.352
80 | A-427 | 0.533
81 | ABC-1 | 0.553
82 | BEN | 0.452
83 | CAL-12T | 0.489
84 | COR-L23 | 0.243
85 | COR-L 105 | 0.354
86 | ChaGo-K-1 | 0.815
87 | EKVX | 0.356
88 | EPLC-272H | 0.263
89 | H3255 | 0.292
90 | HARA | 0.253
91 | HCC-15 | 0.695
92 | HCC-44 | 0.955
93 | HCC-78 | 0.41
94 | HCC-366 | 0.272
95 | HCC-827 | 0.504
96 | HOP-62 | 0.49
97 | LC-2-ad | 0.495
98 | LCLC-103H | 0.421

Row | Cell Line | relative viability
99 | LOU-NH91 | 0.47
100 | LU99A | 0.34
101 | LXF-289 | 0.548
102 | NCI-H23 | 0.51
103 | NCI-H322M | 0.499
104 | NCI-H358 | 0.136
105 | NCI-H441 | 0.188
106 | NCI-H460 | 0.213
107 | NCI-H520 | 0.186
108 | NCI-H522 | 1.07
109 | NCI-H647 | 0.396
110 | NCI-H650 | 0.283
111 | NCI-H661 | 0.401
112 | NCI-H727 | 0.602
113 | NCI-H838 | 0.244
114 | NCI-H1355 | 0.316
115 | NCI-H1395 | 0.559
116 | NCI-H1437 | 0.35
117 | NCI-H1648 | 0.27
118 | NCI-H1650 | 0.317

Row | Cell Line | relative viability
119 | NCI-H1651 | 0.596
120 | NCI-H1666 | 0.648
121 | NCI-H1734 | 0.305
122 | NCI-H1755 | 0.464
123 | NCI-H1792 | 0.58
124 | NCI-H1915 | 0.531
125 | NCI-H1944 | 0.267
126 | NCI-H1975 | 0.526
127 | NCI-H1993 | 0.516
128 | NCI-H2009 | 0.206
129 | NCI-H2023 | 0.369
130 | NCI-H2085 | 0.437
131 | NCI-H2087 | 0.189
132 | NCI-H2126 | 0.352
133 | NCI-H2170 | 0.337
134 | NCI-H2228 | 0.538
135 | NCI-H2342 | 0.463
136 | NCI-H2347 | 0.37
137 | NCI-H2405 | 0.48
138 | NCI-H3122 | 0.145

Same assay, conditions: first compound 0.1 µM

Row | Cell Line | relative viability
139 | 201T | 0.409
140 | A-427 | 0.56
141 | ABC-1 | 0.762
142 | BEN | 0.497
143 | CAL-12T | 0.551
144 | COR-L23 | 0.26
145 | COR-L 105 | 0.43
146 | ChaGo-K-1 | 0.964
147 | EKVX | 0.549
148 | EPLC-272H | 0.236
149 | H3255 | 0.311
150 | HARA | 0.228
151 | HCC-15 | 0.788
152 | HCC-44 | 0.978
153 | HCC-366 | 0.473
154 | HCC-827 | 0.454
155 | HOP-62 | 0.496
156 | LC-2-ad | 0.475
157 | LCLC-97TM1 | 0.299
158 | LCLC-103H | 0.466
159 | LK-2 | 0.772
160 | LOU-NH91 | 0.524
161 | LU99A | 0.429
162 | LXF-289 | 0.62

Source: the supplement of paper PMC10307832
